Test results published in the Kinase Knowledgebase extract (Sharma et al. 2016).
pIC50: −log10 of the molar value.

What follows are compounds tested against PIK3CB;PIK3CG;PIK3CD;PIK3CA (human) (UniProt P48736) (assay: Enzyme Assay).

SMILES | pIC50
Cc1noc(C)c1-c1cccc(-n2nc(C(=O)N3CCOCC3)c3c2-c2ccccc2S(=O)(=O)C3)c1 | 6.52
O=C(c1nn([C@H]2CCCN(CCN3CC[C@@H](F)C3)C2)c2c1CS(=O)(=O)c1ccccc1-2)N1CCOCC1 | 7.49
O=C(c1nn([C@@H]2CCN(CCN3CCC(F)CC3)C2)c2c1CS(=O)(=O)c1ccccc1-2)N1CCOCC1 | 5.43
O=C(c1nn(-c2ccccc2)c2c1CS(=O)(=O)c1ccsc1-2)N1CCOCC1 | 6.19
COc1ccc2c(c1)S(=O)(=O)Cc1c(C(=O)N3CCOCC3)nn([C@H]3CCCN(CCN4CC(F)(F)C4)C3)c1-2 | 7.82
COc1ccc2c(c1)S(=O)(=O)Cc1c(C(=O)N3CCOCC3)nn(C)c1-2 | 6.37
COc1ccc2c(c1)-c1c(c(C(=O)N3CCOCC3)nn1-c1ccccc1)CS2(=O)=O | 5.47
COc1ccc(C(=O)Cn2nc(C(=O)N3CCOCC3)c3c2-c2ccccc2S(=O)(=O)C3)cc1 | 4.84
Cc1ccc(F)cc1-n1nc(C(=O)N2CCOCC2)c2c1-c1ccccc1S(=O)(=O)C2 | 5.38
COc1ccc2c(c1)S(=O)(=O)Cc1c(C(=O)N3CCOCC3)nn([C@H]3CCCN(CCN4CCC(F)CC4)C3)c1-2 | 7.72
O=C(c1nn(-c2cccc(CN3CCSCC3)c2)c2c1CS(=O)(=O)c1ccccc1-2)N1CCOCC1 | 6.63
O=C(c1nn(C2CCCN(CCn3cccn3)C2)c2c1CS(=O)(=O)c1ccccc1-2)N1CCOCC1 (centres undefined) | 6.77
CC(C)(C)C1CCC(n2nc(C(=O)N3CCOCC3)c3c2-c2ccccc2S(=O)(=O)C3)CC1 (centres undefined) | 5.39
Cc1noc(-c2cccc(-n3nc(C(=O)N4CCOCC4)c4c3-c3ccccc3S(=O)(=O)C4)c2)n1 | 5.57
O=C(c1nn(C2CCCNC2)c2c1CS(=O)(=O)c1cc(OC(F)(F)F)ccc1-2)N1CCOCC1 (centres undefined) | 4.98
CC(=O)N1CCC(Cn2nc(C(=O)N3CCOCC3)c3c2-c2ccccc2S(=O)(=O)C3)CC1 | 5.55
O=C(c1nn(-c2cccc(-c3nccs3)c2)c2c1CS(=O)(=O)c1ccccc1-2)N1CCOCC1 | 5.37
CCn1nc(C(=O)N2CCOCC2)c2c1-c1ccccc1S(=O)(=O)C2 | 6.22
O=C(c1nn(-c2ccc(CN3CCOCC3)cc2)c2c1CS(=O)(=O)c1ccc(F)cc1-2)N1CCOCC1 | 6.26
CC(C)(c1ccc(-n2nc(C(=O)N3CCOCC3)c3c2-c2ccccc2S(=O)(=O)C3)cc1)N1CCOCC1 | 6.23
O=C(c1nn(C2CCCC(C(=O)N3CCCCC3)C2)c2c1CS(=O)(=O)c1ccccc1-2)N1CCOCC1 (centres undefined) | 6.44
CS(=O)(=O)Nc1cccc(-n2nc(C(=O)N3CCOCC3)c3c2-c2ccccc2S(=O)(=O)C3)c1 | 5.75

SMILES | pIC50
Cc1ccc2c(c1)S(=O)(=O)Cc1c(C(=O)N3CCOCC3)nn(-c3ccccc3)c1-2 | 5.73
CN1c2c(C(=O)N3CCOCC3)nn(-c3ccccc3)c2-c2ccccc2S1(=O)=O | 5.46
COC1CCN(Cc2ccc(-n3nc(C(=O)N4CCOCC4)c4c3-c3ccccc3S(=O)(=O)C4)cc2)CC1 | 6.60
O=C(c1nn(-c2ccccc2)c2c1CS(=O)(=O)c1ncccc1-2)N1CCOCC1 | 6.28
CN1CCC(Cn2nc(C(=O)N3CCOCC3)c3c2-c2ccccc2S(=O)(=O)C3)CC1 | 5.58
COC1CCN(Cc2ccc(-n3nc(C(=O)N4CCOCC4)c4c3-c3ccccc3S(=O)(=O)C4)cc2)C1 (centres undefined) | 7.23
O=C(c1nn([C@H]2CCCN(CCN3CCOCC3)C2)c2c1CS(=O)(=O)c1c(F)cccc1-2)N1CCOCC1 | 7.80
O=C(c1nn(CCN2CCOCC2)c2c1CS(=O)(=O)c1ccccc1-2)N1CCOCC1 | 6.10
O=C(c1nn([C@H]2CCCN(CCN3CCC(O)CC3)C2)c2c1CS(=O)(=O)c1ccccc1-2)N1CCOCC1 | 7.74
COc1ccccc1-n1nc(C(=O)N2CCOCC2)c2c1-c1ccccc1S(=O)(=O)C2 | 4.83
O=C(c1nn(C2CCCN(CCN3CCC(F)CC3)C2)c2c1CS(=O)(=O)c1ccccc1-2)N1CCOCC1 (centres undefined) | 7.47
COC1CCN(CCN2CCC[C@H](n3nc(C(=O)N4CCOCC4)c4c3-c3ccc(F)cc3S(=O)(=O)C4)C2)CC1 | 7.89
O=C(c1nn([C@H]2CCCN(CCC3CCOCC3)C2)c2c1CS(=O)(=O)c1c(F)cccc1-2)N1CCOCC1 | 8.22
O=C(c1nn(C2CCCN(CCN3CCCC(F)(F)C3)C2)c2c1CS(=O)(=O)c1ccccc1-2)N1CCOCC1 (centres undefined) | 7.08
COCCOCCN1CCCC(n2nc(C(=O)N3CCOCC3)c3c2-c2ccccc2S(=O)(=O)C3)C1 (centres undefined) | 6.20
O=C(c1nn(C2CCN(CCC3CCOCC3)C2)c2c1CS(=O)(=O)c1ccccc1-2)N1CCOCC1 (centres undefined) | 6.55
O=C(c1nn([C@@H]2CCCN(CCC3CCOCC3)C2)c2c1CS(=O)(=O)c1c(F)cccc1-2)N1CCOCC1 | 5.72
O=C(c1nn(C2CCCN(CC3CCOCC3)C2)c2c1CS(=O)(=O)c1ccccc1-2)N1CCOCC1 (centres undefined) | 7.96
O=C(c1nn(-c2ccc(CNC3CCCOC3)cc2)c2c1CS(=O)(=O)c1ccccc1-2)N1CCOCC1 (centres undefined) | 6.65
O=C(c1nn(-c2ccccc2)c2c1CS(=O)(=O)c1c(F)cccc1-2)N1CCOCC1 | 6.37
COCCN1CCC[C@H](n2nc(C(=O)N3CCOCC3)c3c2-c2ccccc2S(=O)(=O)C3)C1 | 7.40
Nc1ccc2c(c1)-c1c(c(C(=O)N3CCOCC3)nn1-c1ccccc1)CS2(=O)=O | 6.43
